Test results: patent US20220325301A1, “AUXOTROPHIC SELECTION METHODS” (AUXOLYTIC LTD, priority 2019, published 2022)

Tests used:
[1] = tested on: UMPS knockout H9 human embryonic stem cells (hESCs); assay: Lineage-specific auxotrophy during beta cell differentiation (GFP ratio in mCherry-off vs mCherry-on cells, fluorescence microscopy); type: cell-based; details: uridine withdrawal at day 12
From the text: As a proof of concept, UMPS knockout cells were engineered to express insulin and were differentiated to pancreatic progenitor cells using an appropriate method as described, for example, in Ma et al. (2018), Pagliuca et al. (2014), and/or Rezania et al. (2014) discussed and incorporated herein. The UMPS gene was knocked out in H9 human embryonic stem cells (hESCs) according to the methods described herein. A GFP-Luciferase expression construct under regulation of a constitutive promoter was integrated by homologous recombination into the HBB locus (see, for example, Dever, Daniel P., et al. “CRISPR/Cas9 β-globin gene targeting in human haematopoietic stem cells.” Nature 539.7629 (2016): 384-389, the contents of which are incorporated herein by reference in their entirety). […] Cells were monitored and assessed for mCherry and UMPS expression on subsequent days up to day 25. The differentiation protocol was followed with cells either in the continuous presence of uridine through day 18 or through the end of the culture period, or through only day 12 (during Stage 4). mCherry and UMPS expression were assessed. An mCherry on vs. off threshold was defined to identify UMPS expressing cells (given UMPS expression is coupled to mCherry) using thresholding based on fluorescence images. […]
Therefore, expression of GFP in mCherry negative cells, when uridine is present, was expected to be higher than the expression of GFP in mCherry negative cells when uridine is absent. […] The results are shown in Table 7, where the “Auxotrophy Metric” was calculated as the mean GFP ratio in uridine-withdrawn conditions divided by the mean GFP ratio in uridine-continued conditions: [(mean GFP(mCherry-Off)/mean GFP(mCherry-On)) uridine-withdrawn-conditions]/[(mean GFP(mCherry-Off)/mean GFP(mCherry-On)) uridine-continued conditions].

UMPS knockout cells [2] = assay: Split auxotrophy: selection of dual transgene integration (CD19/mCherry flow cytometry); type: cell-based, human; details: day 16
Protocol: The UMPS locus is disrupted in the hESCs by electroporation of Cas9 RNP to insert an expression control sequence comprising a tissue-specific promoter into the genomic locus. The promoter will begin to instigate transcription due to interaction with endothelial tissue. For gene editing, hESCs are treated with 10 μm ROCK inhibitor (Y-27632) for 24 hours before electroporation. Cells at 70-80% confluence are harvested with ACCUTASE® solution (Life Technologies). 500,000 cells were used per reaction with a SpCas9 concentration of 150 μg/mL (Integrated DNA Technologies) and a Cas9:sgRNA molar ratio of 1:3 and electroporation performed in P3 Primary Cell solution (Lonza) in 16-well NUCLEOCUVETTE™ Strips in the 4D NUCLEOFECTOR system (Lonza). Immediately after electroporation, cells are transferred into one well of a MATRIGEL® protein mixture (Corning, Inc.)-coated 24 well plate containing 500 μl of mTeSR™ media (STEMCELL Technologies) with 10 μM Y-27632. Media was changed 24 hours after editing and Y-27632 is removed 48 hours after.
Independent functional domains of UMPS, i.e. OPRT and ODC, are reintroduced into UMPS knockout cells according to Example 2 using two separate vectors. A first homologous recombination donor vector carrying OPRT and mCherry (SEQ ID NO: 43) comprises sequence encoding OPRT (SEQ ID NO: 4, encoding amino acid sequence of SEQ ID NO: 5), 2A linker (SEQ ID NO: 19, SEQ ID NO: 21, or SEQ ID NO: 23, encoding amino acid sequences of SEQ ID NO: 20, SEQ ID NO: 22, and SEQ ID NO: 24, respectively), and sequence encoding mCherry fluorescent protein (SEQ ID NO: 34 or SEQ ID NO: 35, each encoding amino acid sequence of SEQ ID NO: 36). Homologous recombination donor vector carrying ODC and CD19 (SEQ ID NO: 44) comprises sequence encoding tCD19 (SEQ ID NO: 37, encoding amino acid sequence of SEQ ID NO: 38), 2A linker, and sequence encoding ODC (SEQ ID NO: 6, encoding amino acid sequence of SEQ ID NO: 7). Expression of OPRT and ODC constructs can be driven by a eukaryotic promoter such as EF1a (SEQ ID NO: 31 or SEQ ID NO: 32). Homologous recombination vectors are co-targeted for integration into safe harbor locus CCR5 (using, for example, CCR5 left and right homology arms selected from SEQ ID NOs: 11-15 as described herein). Homologous recombination vectors can further include termination signals such as a bGH-PolyA termination signal (SEQ ID NO: 39 or SEQ ID NO: 40). Cells are cultured with and without uridine, and the percent of cells expressing both CD19 and mCherry (CD19+/mCherry+) is measured by flow cytometry over time.

UMPS knockout cells [3] = assay: Selection of cells re-expressing UMPS in a UMPS-/- background (% mCherry+ by flow cytometry); type: cell-based; details: after 14 days in culture
Protocol: A construct (SEQ ID NO: 42) expressing mCherry and UMPS separated by a 2A linker sequence under control of a constitutive promoter (EF1a) delivered via DNA vector was inserted by electroporation into the CCR5 locus targeted using homologous recombination arms. Cells were grown in the presence of uridine to alleviate any selection pressure, then uridine was removed to select for cells successfully re-expressing UMPS. Cells were sorted by expression of mCherry using flow cytometry. After 14 days in culture, % mCherry+ cells was approximately 20% in the presence of uridine; % mCherry+ cells was approximately 90% in the absence of uridine.

With “INS-mCherry-UMPS: tricistronic construct expressing insulin, mCherry and UMPS under endogenous insulin regulatory control sequences, integrated into the insulin locus” the “Auxotrophy Metric (mean GFP ratio mCherry-Off/mCherry-On, uridine-withdrawn divided by uridine-continued)” value ([1]; culture day 12) was 0.9904, the “Auxotrophy Metric (mean GFP ratio mCherry-Off/mCherry-On, uridine-withdrawn divided by uridine-continued)” value ([1]; culture day 18) was 0.9827 and the “Auxotrophy Metric (mean GFP ratio mCherry-Off/mCherry-On, uridine-withdrawn divided by uridine-continued)” value ([1]; culture day 25) was 0.7261.
In the case of “Split UMPS: two homologous recombination donor vectors, OPRT and mCherry (SEQ ID NO: 43) and ODC and CD19 (SEQ ID NO: 44), co-targeted to CCR5”, the “% CD19+ only” value (UMPS knockout cells [2]; +Uridine) is reported as 1.2%, the “% CD19+/mCherry+” value (UMPS knockout cells [2]; +Uridine) is reported as 0.3% and the “% CD19-/mCherry-” value (UMPS knockout cells [2]; +Uridine) is reported as 92.9%. The “% mCherry+ only” value (UMPS knockout cells [2]; +Uridine) was 5.6%, the “% CD19+ only” value (UMPS knockout cells [2]; No Uridine) was 0.1% and the “% CD19+/mCherry+” value (UMPS knockout cells [2]; No Uridine) was 94.7%. For the same substance, the “% CD19-/mCherry-” value (UMPS knockout cells [2]; No Uridine) was 0.1% and the “% mCherry+ only” value (UMPS knockout cells [2]; No Uridine) was 5.1%.
“SEQ ID NO: 42: construct expressing mCherry and UMPS separated by a 2A linker under constitutive EF1a promoter, inserted into the CCR5 locus of UMPS knockout cells” was tested, and the “% mCherry+ cells” value (UMPS knockout cells [3]; in the absence of uridine) was “approximately 90%” and the “% mCherry+ cells” value (UMPS knockout cells [3]; in the presence of uridine) was “approximately 20%”.
